Where two headings read alike, the source gives them in different places.
Columns and labels:
DNA-PK = molecular target: T1, DNA-PK (Homo sapiens, UniProt P78527); assay: DNA-PK Assay for Biochemical Enzymatic Inhibition (ADP Glo Kinase assay); settings: Table 2
T1 construct: purchased Invitrogen PR9107A
Procedure, shortened: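 Human DNA-PK (25 ng) preincubated 15 min with compounds (ten three-fold dilutions) in HEPES pH 7.5, MgCl2, KCl, calf thymus DNA buffer, then substrate 434.4 μM and ATP 64.4 μM (final) for 60 min at room temperature. ADP-Glo luminescence; percent inhibition fitted by four-parameter regression for IC50.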

[1] = molecular target: T2, DNA-PK phosphorylation at Serine 2056 (Homo sapiens, UniProt P78527); assay: Cellular Assay for Inhibition of DNA-PK Phosphorylation at Serine 2056 (FaDu cells, neocarzinostatin, sandwich ELISA); type: cell-based; settings: Table 2
T2 construct: host or cells: FaDu
Procedure, shortened: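 Readout was pSer2056 and total DNA-PK, measured by sandwich ELISA on protein-normalized lysates. Prior to lysis, compound was applied to FaDu cells for 1 h (0.3% DMSO), followed by 2 h of 1 μg/mL neocarzinostatin. IC50 values were fitted from log concentration versus % inhibition normalized to DMSO and NCS controls.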

FaDu cell line = assay: Prodrug activation in hypoxic stirred tumour cell suspensions; type: in vitro ADME; settings: 10 μM, 4 hours
Description: Prodrug compounds were assayed to determine their stability and rate of activation in stirred cell suspensions under 0.2 vs 5% oxygen. Compounds were diluted 1:1000 from DMSO stocks to 10 μM final concentration in tumour cell suspensions (1% by cell volume) in MEM media containing 10% FBS, 10 mM glucose & 3.7 g/L sodium bicarbonate. Cell lines assayed included A253, A549, Detroit562, FaDu, HCT116, HEP G2, HT29, SCC25, SCC9, SiHa & TC32. Compounds and cells were then incubated for 4 hours under constant mixing at 37° C. under 5% CO2 and either 0.2 or 5% O2. Following the incubation period cellular activation of the compounds was assayed via MeOH extraction and HPLC quantification.

[2] = system: pH2AX induction in HCT116 ATM−/− multicellular tumour spheroids; assay: Prodrug radiation sensitization in multicellular tumour spheroids (pH2AX induction following radiation); type: cell-based
Description: Prodrug compounds were assayed to determine their potency in 3D multicellular spheroids in media maintained under 20% vs […]. Multicellular tumour spheroids were grown to approximately 0.5 mm in diameter and irradiated with 20 Gy in combination with inhibitor test compounds to determine their potency using HCT116 and FaDu cell lines. Experiments were carried out in 96 well plates containing 0.7 mls of MEM media containing 10% FBS and 10 mM glucose under […] at 37° C. Following dilution of compounds 1:1000 from DMSO stocks, compounds were serially diluted from 10 μM down to 3.5 nM and 5-10 spheroids added. 96 well plates were constantly stirred to avoid spheroids settling during the course of the experiment. Endpoints were pDNA-PK (ser 2056) or pH2AX (ser 139) status in spheroid cryosections taken 1 or 2 hours following radiation and fixed immediately in formalin. Using tumour cell lines deficient in ATM improved the assay signal to noise and gH2AX readout. Using this assay prodrug activity could be compared in the more oxygenated outer spheroid layers versus less oxygenated hypoxic central cell layers.

[3] = Homo sapiens, HCT-116, 20 Gy, 5% O2, inner layers, read-out: Prodrug 5% O2 Inner layers EC50
[4] = Homo sapiens, HCT-116, 20 Gy, 5% O2, outer layers, read-out: Prodrug 5% O2 Outer layers EC50
[5] = Homo sapiens, HCT-116, 20 Gy, 20% O2, outer layers, read-out: Prodrug 20% O2 Outer layers EC50
[6] = 20 Gy, 5% O2, inner layers, read-out: Prodrug 5% O2 Inner layers EC50
[7] = 20 Gy, 5% O2, outer layers, read-out: Prodrug 5% O2 Outer layers EC50
[8] = 20 Gy, 20% O2, outer layers, read-out: Prodrug 20% O2 Outer layers EC50
[9] = value of the effector of the listed prodrug, 5% O2, inner layers, read-out: Effector 5% O2 Inner layers EC50

IC50 (DNA-PK) | IC50 [1] | Fraction of prodrug converted to active form, Hypoxic 0.2% O2 (FaDu cell line) | Fraction of prodrug converted to active form, Oxic 5% O2 (FaDu cell line) | Compound | EC50 [2, 3] | EC50 [2, 4] | EC50 [2, 5] | EC50 [2, 6] | EC50 [2, 7] | EC50 [2, 8] | EC50 [2, 9]
0.01 to 0.15 µM | 10 to 30 µM | B (B is 0.05 to 0.15) | D (D is 0 to 0.02) | Cn1c(CN(c2cnc3cc(N4CCOCC4)nc(OC4CCC(n5ccnc5)CC4)c3c2)S(C)(=O)=O)cnc1[N+](=O)[O-] (centres unmarked) [LFA018, N-[5-(4-Imidazol-1-ylcyclohexoxy)-7-morpholino-1,6-naphthyridin-3-yl]-N-[(3-methyl-2-nitro-imidazol-4-yl)methyl]methanesulfonamide] | 1 to 10 µM | 1 to 10 µM | 1 to 10 µM | – | – | – | –
– | – | B (B is 0.05 to 0.15) | D (D is 0 to 0.02) | Cn1c(CN(c2cnc3cc(N4CCOCC4)nc(OC4CCC(Nc5ccn6nccc6n5)CC4)c3c2)S(C)(=O)=O)cnc1[N+](=O)[O-] (centres unmarked) [LFA035, N-[(3-Methyl-2-nitro-imidazol-4-yl)methyl]-N-[7-morpholino-5-[4-(pyrazolo[1,5-a]pyrimidin-5-ylamino)cyclohexoxy]-1,6-naphthyridin-3-yl]methanesulfonamide] | 0.01 to 0.5 µM | 1 to 10 µM | 1 to 10 µM | – | – | – | –
– | – | A (A is 0.15 to 1) | D (D is 0 to 0.02) | CC(c1cnc([N+](=O)[O-])n1C)N(c1cnc2cc(N3CCOCC3)nc(OC3CCC(Nc4ccn5nccc5n4)CC3)c2c1)S(C)(=O)=O (centres unmarked) [LFA036, N-[1-(3-Methyl-2-nitro-imidazol-4-yl)ethyl]-N-[7-morpholino-5-[4-(pyrazolo[1,5-a]pyrimidin-5-ylamino)cyclohexoxy]-1,6-naphthyridin-3-yl]methanesulfonamide] | 0.01 to 0.5 µM | 0.5 to 1 µM | 10 to 100 µM | – | – | – | –
– | – | D (D is 0 to 0.02) | D (D is 0 to 0.02) | Cn1c(Cn2cnc(-c3cnc4cc(N5CCOCC5)nc(OC5CCC(Nc6ncccn6)CC5)c4c3)n2)cnc1[N+](=O)[O-] (centres unmarked) [LFA138] | – | – | – | 1 to 10 µM | 1 to 10 µM | 1 to 10 µM | 0.01 to 0.5 µM
– | – | B (B is 0.05 to 0.15) | D (D is 0 to 0.02) | Cn1c(Cn2ncnc2-c2cnc3cc(N4CCOCC4)nc(O[C@H]4CC[C@@H](Nc5ncccn5)CC4)c3c2)cnc1[N+](=O)[O-] [LFA139] | – | – | – | 0.5 to 1 µM | 0.5 to 1 µM | 1 to 10 µM | 0.01 to 0.5 µM

From US20240246960A1 (adMare Therapeutics Society, priority 2021, published 2024)
